Experimental data as given in patent US5691148A, “Petroleum immunoassay method, its components and a kit for use in performing the same” (ENSYS, Inc., priority 1994, dated 1997).
Like-named read-outs stand apart in the source and are kept apart here.

Experiments:
[1] = test system: monoclonal F12-3C8 antibody (anti-petroleum); test: Cross-reactivity of immunoassay relative to m-xylene; format: binding, mouse (Balb/c); conditions: for ED50: calculated from a dose response curve
Protocol: (§1) Female Balb/c mice received a primary subcutaneous immunization with 50 ug of xylene derivatized to bovine serum albumin in adjuvant (MPL+TDM Emulsion, RIBI Immunochem Research, Inc., Hamilton, Mont.). Subcutaneous secondary injections (25 ug) were given at day 21, 35, and then monthly. The production of monoclonal antibodies was performed according to conventional procedures (see Milstein, Cancer, 49:1953-1957 (1982)). Hybridoma cultures producing monoclonal antibodies recognizing free hapten by EIA were cloned by limiting dilution.
(§2) Antibody coated tubes were prepared by passively coating polystyrene (12×75 mm, NUNC) tubes with the monoclonal F12-3C8 antibody diluted in PBS and incubating overnight.
(§3) 10 g of a soil sample were placed in an extraction vial containing 20 mL of methanol and 5 steel pellets (6 mm) and the vial and its contents shaken for 1 minute to disperse the soil particles and extract the petroleum hydrocarbons. The sample was then filtered to clarify the sample using a filter of glass fiber and 0.45μTeflon. 45 uL of the clarified filtrate sample was mixed with 955 μl of 10 mM PBS (pH=7.4) and the resulting mixture added to lyophilized enzyme conjugate reagent (0.3 μg) and mixed. At the same time, 2×45 uL of the xylene standard are similarly treated. The sample and the two standards were then poured into three identical antibody coated tubes, respectively, and the resulting solution mixed. The resulting solution was incubated for 10 minutes at ambient temperature and then washed 4× with a wash buffer (detergent-saline solution). 250 uL of tetramethylbenzidene solution (KP Laboratories, Cat. No. 50-76-02) was added along with 250 uL of hydrogen peroxide solution (KPL, Cat. No. 50-65-02) and the resultant solution mixed. After incubating for 2.5 minutes the color development reaction was stopped with 250 uL of stop solution (1M sulfuric acid).
The ED50 value was calculated from a dose response curve.
Percent CrossReactivity = ((mXylene ED50 /Compound ED50) .times

[2] = test system: monoclonal F12-3C8 antibody (anti-petroleum); test: Cross-reactivity of immunoassay: concentration needed to provide a positive result; format: binding, mouse (Balb/c); conditions: test compounds dissolved in methanol
Protocol: as §1, with “dilution. Clone F12-3C8 was selected based upon specificity, and interference criteria.” for “dilution.”
as §2, §3
Cross-reactivity of the immunoassay of the present
invention. The test compounds were dissolved in
methanol and assayed. The values listed are the
concentration of compound needed to provide a […]

[3] = (m-Xylene ED50 / Compound ED50) x 100, m-xylene = 100%

For CC(C)CC(C)(C)C [2,2,4-Trimethylpentane], the “% Cross-Reactivity” value [1, 3] was under 1% and the ED50 [1] was “Negative”.
With CCCCC(C)C [2-Methylhexane] the “% Cross-Reactivity” value [1, 3] was 43% and the ED50 ([1]; 10 min) was 1,113 ppb.
For CCCC(C)C [2-Methylpentane], the “% Cross-Reactivity” value [1, 3] was 57% and the ED50 ([1]; 10 min) was 851 ppb.
For c1cc2c3c(cccc3c1)CC2 [Acenaphthene], the “% Cross-Reactivity” value [1, 3] was 5,378%, the ED50 ([1]; 10 min) was 9 ppb and the Conc. where positive [2] was 2.5 ppm.
For c1ccccc1 [Benzene], the “% Cross-Reactivity” value [1] was under 1% and the Conc. where positive [2] was > 10,000 ppm.
With C1CCCCC1 [Cyclohexane] the “% Cross-Reactivity” value [1, 3] was 7% and the ED50 ([1]; 10 min) was 6,636 ppb.
With CCc1ccccc1 [Ethylbenzene] the “% Cross-Reactivity” value [1] was 275% and the ED50 ([1]; 10 min) was 176 ppb.
CCCCCCC [Heptane] gave a Conc. where positive [2] of 300 ppm.
For CCCCCC [Hexane], the Conc. where positive [2] was 300 ppm.
CC(C)CC(C)(C)C [Isooctane] was tested, and the Conc. where positive [2] was 100 ppm.
c1ccc2ccccc2c1 [Naphthalene] was tested, and the “% Cross-Reactivity” value [1, 3] was 4,390%, the ED50 ([1]; 10 min) was 11 ppb and the Conc. where positive [2] was 2.5 ppm.
For c1ccc2c(c1)ccc1ccccc12 [Phenanthrene], the “% Cross-Reactivity” value [1, 3] was 848%, the ED50 ([1]; 10 min) was 57 ppb and the Conc. where positive [2] was 10 ppm.
For Cc1ccccc1 [Toluene], the “% Cross-Reactivity” value [1, 3] was 22%, the ED50 ([1]; 10 min) was 2,210 ppb and the Conc. where positive [2] was 300 ppm.
For CCCCCCCCCCC [Undecane], the Conc. where positive [2] was > 10,000 ppm.
Cc1cccc(C)c1 [m-Xylene, reference compound] was tested, and the “% Cross-Reactivity” value [1, 3] was 100% and the ED50 ([1]; 10 min) was 483 ppb.
With CCCCCCC [n-Heptane] the “% Cross-Reactivity” value [1, 3] was 30% and the ED50 ([1]; 10 min) was 1,669 ppb.
CCCCCCCCC [n-Nonane] was tested, and the “% Cross-Reactivity” value [1, 3] was under 1% and the ED50 [1] was “Negative”.
For CCCCCCCC [n-Octane], the “% Cross-Reactivity” value [1, 3] was 11% and the ED50 ([1]; 10 min) was 4,589 ppb.
With CCCCCCCCCCCCCC [n-Tetradecane] the “% Cross-Reactivity” value [1, 3] was under 1% and the ED50 [1] was “Negative”.
CCCCCCCCCCCCC [n-Tridecane] was tested, and the “% Cross-Reactivity” value [1, 3] was under 1% and the ED50 [1] was “Negative”.
For CCCCCCCCCCC [n-Undecane], the “% Cross-Reactivity” value [1, 3] was under 1% and the ED50 [1] was “Negative”.
Cc1ccccc1C [o-Xylene] was tested, and the “% Cross-Reactivity” value [1, 3] was 271% and the ED50 ([1]; 10 min) was 178 ppb.
With Cc1ccc(C)cc1 [p-Xylene] the “% Cross-Reactivity” value [1, 3] was 38% and the ED50 ([1]; 10 min) was 1,255 ppb.
With Methylnaphthalene the “% Cross-Reactivity” value [1, 3] was 780%, the ED50 ([1]; 10 min) was 62 ppb and the Conc. where positive [2] was 10 ppm.
Xylene showed a Conc. where positive [2] of 100 ppm.
